No end group written: not given here.
How the values were obtained:
HLA-A24 antigen = details: compared with the wild type peptide; cited from earlier work
splenocytes = experiment: Immunization of a mouse (2), mouse IFN gamma ELISPOT of splenocytes; assay type: in vivo, HLA-A2402/K^b transgenic mouse; details: splenocytes 7 days after immunization; peptides added at 10^-6 M, 18 hours; FIG. 8
Experimental: The peptide of Example 1 was adjusted to 40 mg/ml in DMSO. Then, the solution (32.5 μl) was mixed with water for injection (540 μl). Further, the resulting solution (550 μl) was mixed with Freund's incomplete adjuvant (700 μl) (Montanide ISA51 (registered trademark)) (SEPPIC, Inc, Paris, France) using a glass syringe to prepare water-in-oil emulsion.
The resulting preparation (200 μl) was injected into an HLA-A2402/K^b transgenic mouse intradermally in the base of the tail for immunization. 7 days after initiation of the experiment, spleen was removed and splenocytes were prepared in a conventional manner (WO 02/47474). Then, tests were conducted using mouse IFN gamma ELISPOT set (Enzyme—Linked Immunospot) (Fujisawa, catalog No. BD-551083). The test was conducted according to the instructions attached to the set.
According to the attached instructions, the plate was washed and the number of spots was detected using KS Elispot Research System (Carl Zeiss). Elispot method is known as an alternative to a test for cytotoxic activity (J. Immunological Methods, 1995, 181, 45-54).

[1] = tested on: HLA-A2402 expressing VA13/A2402 cells pulsed with or without peptide; experiment: Test using human PBMC: IFN-γ ELISA of peptide-stimulated CD8 positive T cells; assay type: cell-based; details: Day 21 T cells, FIG. 9
Experimental: Peripheral blood (50 ml) was taken using heparinized vacuum blood collection tube from HLA-A24 positive healthy subjects. The blood diluted two fold with PBS (−) was overlayered on Ficoll-Paque (Amersham Biosciences), the amount of which was half of the amount of the blood, followed by centrifugation for 20 minutes at 2000 rpm. A cell layer containing the peripheral blood mononuclear cells (PBMC) was collected and 3-4 times the amount of PBS (−) was added thereto, followed by centrifugation for 10 minutes at 1800 rpm. The cell pellet was washed twice with PBS (−) and PMBC was collected.
The PMBC was suspended in medium for culturing lymphocyte (RPMI1640: AIM V=1:1, NEAA, 10% FCS) and cultured in a culture flask for two hours and nonadherent cells were collected. Using CD8^+ T cell isolation kit II (Miltenyi Biotec), CD8 positive T cells were collected among the nonadherent cells. The adherent cells were cultured in the medium for culturing lymphocyte containing GM-CSF (1000 U/ml) and IL-4 (1000 U/ml) for 7 days. The floating cells were collected as an antigen-presenting cell fraction containing dendritic cells (DC). The collected cells were frozen for preservation until they are used for experiments.
The DC fraction prepared as above was pulsed with the peptide of Example 1 (50 μg/ml) by incubating the cells with the peptide in AIM-V medium containing mitomycin (50 μg/ml) for one hour. After washing with the medium three times, the peptide of Example 1 was further added (50 μg/ml) for one hour pulse to prepare antigen-presenting cells. On Day 0, antigen-presenting cells pulsed with the peptide were added to CD8 positive T cells to conduct the first stimulation, and the cell culture was started in medium for culturing lymphocyte containing IL-7 (10 ng/ml) using 24-well plate. On Day 7, T cells were collected and after washing them, peptide stimulation using antigen-presenting cells pulsed with the peptide was conducted in a similar way to the first stimulation. On the next day (Day 8), IL-2 was added so that the concentration was 50 U/ml. On Day 14, T cells were collected and the third stimulation was conducted in a similar way to the first or second stimulation. On the next day (Day 15), IL-2 was added so that the concentration was 50 U/ml. On Day 21, T cells were collected and frozen for preservation.
1×10^5 cells of T cells of Day 21 were added to 2×10^4 cells of HLA-A2402 expressing VA13/A2402 cells pulsed with or without each of the peptides (wild type peptide (WT1235-243), modified peptide (WT1235-243(2M→Y)) or the peptide of Example 1) and 18 hours later, the supernatant was collected to determine the amount of IFN-γ using ELISA.
The results of the peptide specific reactivity of T cells stimulated with the synthetic peptide of Example 1 were shown in FIG. 9. […]

HLA-A24 = details: HLA-A24-restricted manner; cited from earlier work

CYTWNQMNL [WT1235-243 (2M→Y)]
binding affinity for the HLA-A24 antigen (HLA-A24 antigen): higher binding affinity for the HLA-A24 antigen than the wild type peptide

H-Cys(H-Cys-OH)-Tyr-Thr-Trp-Asn-Gln-Met-Asn-Leu-OH (H-C(Cys)YTWNQMNL-OH; also: Cys1 disulfide-linked to a free Cys-OH (cystine)) [Example 1, derivative of WT1235-243 (2M→Y) modified with cystine]
HLA-A24 specific cell-mediated immunity, IFN gamma ELISPOT spots (splenocytes): could induce HLA-A24 specific cell-mediated immunity which cross reacted with the wild type peptide | reactivity (IFN-γ) of T cells stimulated with the peptide to cells pulsed without the peptide ([1]; VA13/A2402 cells not pulsed, 18 hours): did not react | reactivity (IFN-γ) of T cells stimulated with the peptide to cells pulsed with the modified peptide (WT1235-243 (2M→Y)) ([1]; VA13/A2402 cells pulsed with WT1235-243 (2M→Y), 18 hours): reacted | reactivity (IFN-γ) of T cells stimulated with the peptide to cells pulsed with the wild type peptide (WT1235-243) ([1]; VA13/A2402 cells pulsed with WT1235-243, 18 hours): reacted | reactivity (IFN-γ) of T cells stimulated with the peptide to cells pulsed with the peptide of Example 1 ([1]; VA13/A2402 cells pulsed with the peptide of Example 1, 18 hours): sufficiently reacted

CMTWNQMNL [WT1235-243, peptide spanning positions 235 to 243 of the cancer antigen protein WT1]
activity to induce CTLs (HLA-A24): having an activity to induce CTLs in HLA-A24-restricted manner
